Assays:
[1] = molecular target: insulin-regulated aminopeptidase (IRAP) (Homo sapiens, UniProt Q9UIQ6); conditions: for IC50 higher than compound 37: compared with compound 37
[2] = tested on: dendritic spine density in the hippocampus; design: method as in PMID 26769413; conditions: cited from earlier work
[3] = cited from earlier work
[4] = tested on: rodent models of cognitive impairment; design: method as in PMID 10234025, PMID 11707427, PMID 3252173, PMID 14980384; conditions: cited from earlier work

insulin-regulated aminopeptidase (IRAP), sequence (Q9UIQ6 whole entry): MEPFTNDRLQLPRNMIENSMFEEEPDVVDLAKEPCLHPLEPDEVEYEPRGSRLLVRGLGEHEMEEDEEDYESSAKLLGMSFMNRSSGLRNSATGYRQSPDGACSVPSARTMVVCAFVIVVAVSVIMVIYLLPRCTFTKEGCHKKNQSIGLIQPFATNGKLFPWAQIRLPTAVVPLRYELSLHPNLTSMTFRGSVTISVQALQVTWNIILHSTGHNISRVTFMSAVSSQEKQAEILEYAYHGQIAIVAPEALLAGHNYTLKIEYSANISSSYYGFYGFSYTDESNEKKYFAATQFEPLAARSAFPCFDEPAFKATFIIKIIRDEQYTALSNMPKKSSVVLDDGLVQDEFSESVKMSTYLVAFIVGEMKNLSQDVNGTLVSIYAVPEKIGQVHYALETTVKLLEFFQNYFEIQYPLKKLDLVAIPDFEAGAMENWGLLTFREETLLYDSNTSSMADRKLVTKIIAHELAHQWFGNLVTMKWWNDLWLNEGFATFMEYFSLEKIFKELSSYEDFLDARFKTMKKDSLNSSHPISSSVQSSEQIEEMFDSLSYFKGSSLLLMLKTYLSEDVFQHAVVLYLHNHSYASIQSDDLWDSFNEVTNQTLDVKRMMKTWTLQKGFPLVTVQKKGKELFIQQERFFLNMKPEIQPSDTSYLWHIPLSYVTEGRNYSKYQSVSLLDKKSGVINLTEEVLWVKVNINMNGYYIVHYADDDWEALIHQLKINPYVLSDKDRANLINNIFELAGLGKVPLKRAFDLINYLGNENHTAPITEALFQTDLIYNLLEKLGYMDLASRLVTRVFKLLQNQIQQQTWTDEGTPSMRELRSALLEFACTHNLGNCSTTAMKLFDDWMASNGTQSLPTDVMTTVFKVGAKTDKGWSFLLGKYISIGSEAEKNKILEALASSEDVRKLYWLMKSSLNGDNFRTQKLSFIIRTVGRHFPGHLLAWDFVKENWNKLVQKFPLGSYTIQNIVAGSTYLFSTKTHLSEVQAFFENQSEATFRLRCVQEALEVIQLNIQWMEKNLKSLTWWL

| Molecule | IC50 [1] [nM] | IC50 higher than compound 37 [1] [fold] | dendritic spine density in the hippocampus [2] | susceptibility to proteolytic degradation in vivo [3] | performance in rodent models of cognitive impairment [4] |
| --- | --- | --- | --- | --- | --- |
| N[C@H]1CCSSC[C@@H](C(=O)NCc2cccc(C(=O)O)c2)NC(=O)C[C@H](Cc2ccc(O)cc2)NC1=O [Compound 38] | 906 | 14 |  |  |  |
| N[C@H]1CCSSC[C@@H](C(=O)NCc2ccc(C(=O)O)cc2)NC(=O)C[C@H](Cc2ccc(O)cc2)NC1=O [Compound 39] | 2950 | 46 |  |  |  |
| N[C@H]1CCSSC[C@@H](C(=O)NCc2ccccc2CC(=O)O)NC(=O)C[C@H](Cc2ccc(O)cc2)NC1=O [HA08] |  |  | increase dendritic spine density in the hippocampus | susceptible to proteolytic degradation in vivo |  |
| Val–Tyr–Ile–His–Pro–Phe [Ang IV] |  |  |  |  | improves performance in rodent models of cognitive impairment |

Reference: paper PMC12378631, “Novel macrocyclic peptidomimetics targeting the insulin-regulated aminopeptidase (IRAP): design, synthesis and evaluation” (RSC Medicinal Chemistry, 2025)
